These results are taken from ChEMBL document CHEMBL1201862, “PubChem BioAssay data set” (2004).

Holding throughout (assay): DTP human tumour cell line panel, 48 h
The test system of assay [1] is ACHN.
Assay [2] deals with CAKI-1.
For assay [3], the system named is DU-145.
Assay [4] has as its system HL-60.
The subject of assay [5] is HT-29.
For assay [6], the system named is Hs-578T.
Assay [7] deals with M14.
Assay [8] relates to MCF7.
Assay [9] concerns MDA-MB-435.
In assay [10] the test system is MDA-N.
Assay [11] deals with NCI-H522.
Assay [12] deals with PC-3.
Assay [13] deals with RXF 393.
The test system of assay [14] is SF-295.
Assay [15] relates to SK-MEL-5.
Assay [16] concerns SK-OV-3.
For assay [17], the system named is SN12C.
Assay [18] has as its system SW-620.
For assay [19], the system named is TK-10.
Assay [20] concerns UACC-257.

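Where inhibition never reached the appropriate level, the endpoint shown equals the highest concentration tested. Otherwise, values were interpolated linearly from a five-concentration, 48-hour dose response in 96-well plates. Abbreviation: GI50, concentration required for 50% inhibition of growth.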 The source made the active and inactive calls. No stated cut-off is given here; in the data, active = GI50 up to about 1.1 µM and inactive = higher.

Consider `Cc1cc(C)nc(NS(=O)(=O)c2ccc(NNC(=O)c3cccc4c(=O)c5ccccc5[nH]c34)cc2)n1`, for which the GI50 in assay [1] is 32.4 µM (inactive); in assay [2], > 100 µM (inactive); in assay [3] it was > 100 µM (inactive); in assay [4], 41.2 µM (inactive); in assay [5] it was 66.5 µM (inactive); in [6], 61.7 µM (inactive). The GI50 in [7] is > 100 µM (inactive); in assay [8], > 100 µM (inactive); in assay [9], 61.8 µM (inactive); in assay [10], 75.9 µM (inactive); in [11], 33.6 µM (inactive); in assay [12], 38.4 µM (inactive). The GI50 in assay [13] was 36 µM (inactive); in [14], 80.5 µM (inactive); in assay [15], 52.1 µM (inactive); in assay [16] it was 55.5 µM (inactive); in assay [17], 96.6 µM (inactive); in [18], 83.8 µM (inactive). Also, the GI50 in [19] and in [20] was > 100 µM (inactive) each time.

Consider `CCN(CC)CC[n+]1ccc2c(C)c3[nH]c4ccc(O)cc4c3c(C)c2c1`, for which the GI50 in assay [1] is 2.64 µM (inactive); in assay [2], 13.8 µM (inactive); in assay [3], 2.4 µM (inactive); in assay [4], 2.88 µM (inactive); in assay [5] it was 8.45 µM (inactive); in assay [6] it was 0.552 µM (active). In addition, the GI50 in assay [7] was 10.7 µM (inactive); in assay [8] it was 2 µM (inactive); in [9] it was 9.42 µM (inactive); in assay [10], 8.89 µM (inactive); in assay [11] it was 1.96 µM (inactive); in assay [12] it was 7.46 µM (inactive). For the same compound, the GI50 in assay [13] was 11.1 µM (inactive); in [14], 3.01 µM (inactive); in [15] it was 3.09 µM (inactive); in assay [16], 10.4 µM (inactive); in assay [17], 0.414 µM (active); in assay [18], 5.57 µM (inactive). Also, the GI50 in assay [19] is 28.3 µM (inactive); in assay [20], 19.6 µM (inactive).

For `O=c1[nH]c2cc3cccnc3c(Cl)c2nc1C(F)(F)F`, the GI50 in [1] is 35.9 µM (inactive); in assay [2] it was 21.2 µM (inactive); in assay [3] it was 54.8 µM (inactive); in assay [4], 32.9 µM (inactive); in assay [5], 51.3 µM (inactive); in assay [6], 58.1 µM (inactive). The GI50 was 28.8 µM (inactive) in assay [7]; 28.3 µM (inactive) in [8]; 33.7 µM (inactive) in [9]; 37.2 µM (inactive) in assay [10]; 28.6 µM (inactive) in assay [11]; 52 µM (inactive) in [12]. Also, the GI50 in assay [13] is 46.7 µM (inactive); in assay [14], 41 µM (inactive); in [15], 14.5 µM (inactive); in [16] it was 57.3 µM (inactive); in assay [17] it was 75.5 µM (inactive); in assay [18], > 100 µM (inactive). The GI50 is 68.9 µM (inactive) in assay [19] and 27.1 µM (inactive) in [20].

As to `S=C(/N=C1/NCC(CN2CCN(c3ccccc3)CC2)O1)Nc1ccccc1` (stereo not given), the GI50 in assay [1] is > 100 µM (inactive); in [2] it was 73.3 µM (inactive); in assay [3] it was 56.9 µM (inactive); in assay [4] it was 29 µM (inactive); in assay [5] it was 42.2 µM (inactive); in assay [6] it was > 100 µM (inactive). Further, the GI50 in assay [7] was > 100 µM (inactive); in assay [8] it was 38.4 µM (inactive); in assay [9], 70.8 µM (inactive); in assay [10] it was > 100 µM (inactive); in assay [11] it was > 100 µM (inactive); in assay [12], 39.9 µM (inactive). The GI50 in assay [13] is 39.8 µM (inactive); in assay [14], 49 µM (inactive); in assay [15], 35.3 µM (inactive); in [16], > 100 µM (inactive); in assay [17], > 100 µM (inactive); in assay [18], 52.7 µM (inactive). Moreover, the GI50 in [19] and in assay [20] was > 100 µM (inactive) in each case.
